Test results reported in the supplement of paper PMC11061612.

What was measured:
Test in all cases: combination Emax (second highest fraction inhibited in the dose matrix, 72 h); higher = more inhibition; extreme values may be limits of the assay
[1] = test system: SN12C (Kidney Carcinoma)
Procedure, shortened: (§1)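 Cell lines grown in DMEM/F12 or RPMI with 10% FBS were plated in 1536-well plates and held 24 hours at 37°C, 5% CO2 before 72 hours of exposure to two-drug dose matrices, with DMSO typically at 0.2%. CellTiter-Glo 2.0 luminescence gave viability, which was converted to inhibition. Vehicle wells were set to 0 and blank wells to 1. Combination Emax is the second-highest inhibition in the matrix, and Bliss excess is the observed combination effect minus the expected EA + EB − EA·EB, where EA and EB are the single-agent effects.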

[2] = test system: JiyoyeP-2003 (Burkitt's Lymphoma)
Procedure, shortened: as §1

[3] = test system: C3A (Hepatocellular Carcinoma)
Procedure, shortened: as §1

[4] = test system: IHH-4 (Thyroid Gland Carcinoma)
Procedure, shortened: as §1

[5] = test system: U-266 (Plasma Cell Myeloma)
Procedure, shortened: as §1

[6] = test system: RH-1 (Ewing's Sarcoma)
Procedure, shortened: as §1

[7] = test system: J82 (Bladder Carcinoma)
Procedure, shortened: as §1

[8] = test system: NCI-H1694 (Small Cell Lung Carcinoma)
Procedure, shortened: as §1

[9] = test system: SK-N-FI (Neuroblastoma)
Procedure, shortened: as §1

[10] = test system: HCC2157 (Breast Carcinoma)
Procedure, shortened: as §1

[11] = test system: EM-2 (Chronic Myelogenous Leukemia)
Procedure, shortened: as §1

[12] = test system: CAL-78 (Chondrosarcoma)
Procedure, shortened: as §1

[13] = test system: KARPAS-620 (Plasma Cell Myeloma)
Procedure, shortened: as §1

[14] = test system: SNU-C5 (Colorectal Carcinoma)
Procedure, shortened: as §1

[15] = test system: IGR-1 (Melanoma)
Procedure, shortened: as §1

[16] = test system: SW756 (Cervical Carcinoma)
Procedure, shortened: as §1

[17] = test system: 697 (B-Lymphoblastic Leukemia)
Procedure, shortened: as §1

[18] = test system: TGBC24TKB (Biliary Tract Carcinoma)
Procedure, shortened: as §1

[19] = test system: CFPAC-1 (Pancreatic Carcinoma)
Procedure, shortened: as §1

[20] = test system: KATOIII (Gastric Carcinoma)
Procedure, shortened: as §1

Row | SMILES | combination Emax [1] | combination Emax [2] | combination Emax [3] | combination Emax [4] | combination Emax [5] | combination Emax [6] | combination Emax [7] | combination Emax [8] | combination Emax [9] | combination Emax [10] | combination Emax [11] | combination Emax [12] | combination Emax [13] | combination Emax [14] | combination Emax [15] | combination Emax [16] | combination Emax [17] | combination Emax [18] | combination Emax [19] | combination Emax [20]
1 | CC(=O)c1c(C)c2cnc(Nc3ccc(N4CCNCC4)cn3)nc2n(C2CCCC2)c1=O [Palbociclib] + Cc1c2c(nn1C)CSCc1cc(n(C)n1)CSc1cc(c3ccccc3c1)OCCCc1c(C(=O)O)n(C)c3c-2c(Cl)ccc13 [AZD5991] (first compound max 10 µM, 7x7, partner max 1 µM) | 0.166 | 0.588 | 0.592 | 0.411 | 0.872 | 0.853 | 0.25 | 0.667 | 0.557 | 1 | 0.484 | 0.693 | 1 | 0.35 | 0.818 | 0.29 | 1 | 0.585 | 0.375 | 0.406
2 | COc1nnc2ccc(N3CCC(c4ccc(OCCN5CCN(C)C(=O)[C@H]5C)cc4)CC3)nn12 [AZD5153] + CC1(C)CCC(CN2CCN(c3ccc(C(=O)NS(=O)(=O)c4ccc(NCC5CCOCC5)c([N+](=O)[O-])c4)c(Oc4cnc5[nH]ccc5c4)c3)CC2)=C(c2ccc(Cl)cc2)C1 [Venetoclax] (first compound max 1 µM, 7x7, partner max 1 µM) | 0.318 | 0.833 | 0.453 | 0.498 | 0.272 | 0.334 | 0.308 | 0.551 | 0.629 | 1 | 0.918 | 0.457 | 0.927 | 0.522 | 0.433 | 0.315 | 1 | 0.642 | 0.416 | 0.337
3 | Cc1c2c(nn1C)CSCc1cc(n(C)n1)CSc1cc(c3ccccc3c1)OCCCc1c(C(=O)O)n(C)c3c-2c(Cl)ccc13 [AZD5991] + Cc1cc2ncnn2cc1Nc1ncc2c(n1)n(C1CCOCC1)c(=O)n2C [AZD7648] (first compound max 1 µM, 7x7, partner max 10 µM) | 0.269 | 0.784 | 0.248 | 0.35 | 0.945 | 0.605 | 0.187 | 0.998 | 0.414 | 0.984 | 0.446 | 0.782 | 1 | 0.267 | 0.237 | 0.196 | 1 | 0.243 | 0.259 | 0.178
4 | COc1cccc(OCCCN)c1-c1cc(Nc2cnc(C#N)cn2)n[nH]1 [Prexasertib] + CN(C)CCCOc1ccc(-c2ccc3ncc4c(c3c2)n(C2CCOCC2)c(=O)n4C)cn1 [AZD0156] (first compound max 1 µM, 7x7, partner max 1 µM) | 0.342 | 0.987 | 0.613 | 0.901 | 0.728 | 1 | 0.407 | 0.794 | 0.908 | 0.976 | 0.986 | 0.525 | 0.896 | 0.889 | 0.466 | 0.379 | 1 | 0.863 | 0.618 | 0.522
5 | CN(CCO)CC[C@H](CSc1ccccc1)Nc1ccc(S(=O)(=O)NC(=O)c2ccc(N3CCC([C@@H](O)c4ccccc4-c4ccc(Cl)cc4)CC3)cc2)cc1S(=O)(=O)C(F)(F)F [AZD4320] + Cn1cnc2c(F)c(Nc3ccc(Br)cc3Cl)c(C(=O)NOCCO)cc21 [Selumetinib] (first compound max 1 µM, 7x7, partner max 3 µM) | 0.337 | 0.84 | 0.847 | 0.58 | 0.938 | 0.854 | 0.245 | 0.957 | 0.554 | 0.923 | 0.971 | 0.557 | 1 | 0.656 | 0.986 | 0.47 | 1 | 0.791 | 0.472 | 0.29
6 | CS(=O)(=O)CCNCc1ccc(-c2ccc3ncnc(Nc4ccc(OCc5cccc(F)c5)c(Cl)c4)c3c2)o1 [Lapatinib] + C[C@@H](Oc1cc(-c2cnn(C3CCNCC3)c2)cnc1N)c1c(Cl)ccc(F)c1Cl [Crizotinib] (first compound max 10 µM, 7x7, partner max 10 µM) | 0.216 | 0.863 | 0.951 | 0.907 | 0.495 | 0.939 | 0.662 | 0.291 | 0.601 | 1 | 1 | 0.897 | 0.873 | 0.764 | 0.987 | 0.313 | 0.996 | 0.952 | 0.963 | 0.627
